These results are taken from US10993923B2, “Method for ameliorating fibrosis using 1-[4-chloro-3-(trifluoromethyl)phenyl]-3-[3-(4-cyanophenoxy)phenyl]urea” (priority 2016, dated 2021).

Assay [1] deals with mouse fibroblasts (NIH3T3 cell line). Put plainly: Apoptosis analysis, NIH3T3 fibroblasts. In kind it is cell-based. Here is the method: (§1) Murine NIH3T3 fibroblasts and human lung epithelial cells (A549 cells) were purchased from the Bioresource Collection and Research Center (Hsinchu, Taiwan). Cells were cultured in Dulbecco's modified eagle medium (DMEM) containing 10% fetal bovine serum (FBS), 100 μg/mL penicillin, 100 μg/mL streptomycin. Cells were cultured at 37° C. in a humidified atmosphere of 5% CO2 and passaged every 4 to 5 days at 1:4 ratios.
The measurement of apoptotic cells was conducted by flow cytometry (sub-G1) and cell death detection enzyme-bound immunosorbent assay (ELISA) for cytoplasmic histone associated DNA fragments. The amount of formazan dye was quantified by measuring the absorbance at 570 nm using ELISA reader to calculate the optical density (OD) values. Statistical analysis was determined using Student's t-test, with P<0.05 considered significant.
STAT3 cDNA (KIAA1524) was purchased from Addgene Platinum Corporation. After the transient transfection of STAT3, SHP-1, SHP-1(dN1) mutants and SHP-1(61A) mutant in mouse fibroblasts (NIH3T3 cell line) and human lung epithelial cells (A549 cell line), cells were reacted separately with the 1-[4-chloro-3-(trifluoromethyl)phenyl]-3-[3-(4-cyanophenoxy)phenyl]urea compound and subjected to the Western blotting process. Transfection was performed by X-tremeGENE HP Transfection Reagent (Roche, Germany) following the manufacturer's instructions. […]

Assay [2] shares this test system. Put plainly: Cell viability assay (WST-1), NIH3T3 fibroblasts. As to conditions: FIG. 7A. In kind it is cell-based. Here is the method: as §1
Murine NIH3T3 fibroblasts were seeded into 96-well plates (1×10^3 cells/well). To measure the cell viability and the cell proliferation, 10% WST-1 (cell proliferation reagent WST-1, Roche) was added to each well and reacted for 3 hours. The reaction was catalyzed by mitochondrial reductase in active cells and the optical density (OD) was calculated by measuring the absorbance at 450 nm via a Bio-Rad ELISA analyzer.
(In general: Formazan colour is commonly taken as a measure of viable cells.)

For assay [3], the system named is PDGFR and STAT3 pathways in HSC-T6 cells. Put plainly: Western blot of signalling proteins in HSC-T6 cells. Format: cell-based, rat. Here is the method: Rat immortal hepatic stellate cell line HSC-T6 and LX2 human hepatic stellate cell line were provided by Professor Scott Friedman of Mount Sinai Hospital in New York, USA. The primary mouse HSCs were obtained via the way: after intubating the hepatic portal vein of the mouse, the cells were perfused with Leffert's and ethylene glycol bis-aminoethyl ether tetraacetic acid (EGTA) buffer in situ, and then collagenase was injected to digest the liver tissue, and then the primary mouse HSCs were isolated by Histodnz gradient. HSC-T6 cells were cultured in Waymouth medium; LX2 cells and primary mouse HSCs were cultured in Dulbecco's Modified Eagle Medium (DMEM) containing 10% fetal bovine serum (FBS), 100 μg/mL penicillin, 100 μg/mL streptomycin, and 2 mM L-glutamine HSC-T6 cells, LX2 cells and primary mouse HSCs were cultured in a humidified incubator containing 5% carbon dioxide at 37° C. After adding the FBS, the resting HSC is started. […]
Whole-cell extracts were obtained via RIPA buffer (Millipore, USA) and protein concentrations were quantified via a BCA protein assay kit (Thermo Fisher Scientific, USA). […] Proteins were detected by Immobilon Western Chemiluminescent HRP substrate (Millipore, USA) or ECL detection system (UVP Corporation, USA). […]
For orientation: In western blotting, separated proteins are transferred to a membrane and probed.

Assay [4] has as its system hepatic stellate cells (HSC). Put plainly: Western blot in hepatic stellate cells (cell line not given). Format: cell-based. Here is the method:
Rat immortal hepatic stellate cell line HSC-T6 and LX2 human hepatic stellate cell line were provided by Professor Scott Friedman of Mount Sinai Hospital in New York, USA. The primary mouse HSCs were obtained via the way: after intubating the hepatic portal vein of the mouse, the cells were perfused with Leffert's and ethylene glycol bis-aminoethyl ether tetraacetic acid (EGTA) buffer in situ, and then collagenase was injected to digest the liver tissue, and then the primary mouse HSCs were isolated by Histodnz gradient. HSC-T6 cells were cultured in Waymouth medium; LX2 cells and primary mouse HSCs were cultured in Dulbecco's Modified Eagle Medium (DMEM) containing 10% fetal bovine serum (FBS), 100 μg/mL penicillin, 100 μg/mL streptomycin, and 2 mM L-glutamine HSC-T6 cells, LX2 cells and primary mouse HSCs were cultured in a humidified incubator containing 5% carbon dioxide at 37° C. After adding the FBS, the resting HSC is started. For in vitro studies, various concentrations of 1-[4-chloro-3-(trifluoromethyl)phenyl]-3-[3-(4-cyanophenoxy)phenyl]urea and sorafenib were dissolved in dimethyl sulfoxide and subsequently added to cells, which were in 5% FBS, for a predetermined period of time.
Whole-cell extracts were obtained via RIPA buffer (Millipore, USA) and protein concentrations were quantified via a BCA protein assay kit (Thermo Fisher Scientific, USA). 20 or 25 μg of protein was added to various percentages of SDS-sodium dodecyl sulfate-acrylamide gel and blotted onto a polyvinylidene fluoride (PVDF) membrane. The membrane was then reacted with a primary antibody; after extensive washing, the membrane was reacted with a […] containing a second antibody. Proteins were detected by Immobilon Western Chemiluminescent HRP substrate (Millipore, USA) or ECL detection system (UVP Corporation, USA). […]

Assay [5] deals with CCl4-induced hepatic fibrosis in mice. Put plainly: CCl4-induced hepatic fibrosis mice treatment model. In kind it is in vivo, male C57BL/6J mice. From the text:
In male C57BL/6J mice, liver fibrosis was induced by carbon tetrachloride (CCl4). The mice were given peritoneal injection of carbon tetrachloride for 4 or 8 weeks every two weeks.
The mice liver samples were stored in 10% formaldehyde, dehydrated with gradient alcohol, embedded in paraffin blocks, sectioned to a thickness of 3 μm, placed on glass slides, and stained with Picrosirius Red Stain kit (ScyTek, USA), following the manufacturer's instructions. The severity of liver fibrosis was graded according to the Ishak fibrosis score. Quantitative collagen-positive area (qCPA) was determined by densitometry via ImageJ software. Hepatic hydroxyproline concentrations were measured by the hydroxyproline assay kit (Biovision, USA), following the manufacturer's instructions Immunohistochemistry was performed by the Leica BOND-MAX automatic chromatograph (Leica Biosystems, Germany), following the manufacturer's instructions.
Continuous variables are presented as mean (standard error), and categorical data are presented as number (percentage), as appropriate. Differences between subgroups were evaluated using the Student t test. Spearman's correlation was used for the association between SHP-1 and serum alanine aminotransferase (ALT). The mouse survival rate was estimated using the Kaplan-Meier method. The log-rank test was used to determine the statistical differences in survival of the different experimental groups. Statistical analysis was performed using STATA (version 13, Stata Corp, College Station, Tex., USA). All tests were two-sided, and P<0.05 was considered significant.

Take `N#Cc1ccc(Oc2cccc(NC(=O)Nc3ccc(Cl)c(C(F)(F)F)c3)c2)cc1` [1-[4-chloro-3-(trifluoromethyl)phenyl]-3-[3-(4-cyanophenoxy)phenyl]urea]: in assay [1] (NIH3T3, SHP-1 siRNA, FIG. 7D), the “compound-induced apoptosis after SHP-1 knockout” value is recorded as “offset by SHP-1 knockout”. Further, the “apoptosis of fibrotic cells” value in assay [1] (NIH3T3, FIG. 7C) was “induced apoptosis”. Moreover, the “survival rate of mouse fibroblasts” value in assay [2] is “reduced the survival rate of mouse fibroblasts (NIH3T3 cell line) in a dose-dependent manner”. In assay [3] (10 μM for 4 hours, then PDGF-BB 100 ng/mL 10 minutes, FIG. 14E), the “p-PDGFR and p-Akt in the PDGFR pathway” value is “downregulated”. Besides, in assay [3] (FIG. 15A), the “downregulation of p-STAT3 and cyclin D1, compared with sorafenib” value is reported as “more significant dose-escalation effects on the downregulation”. Further, the “IL-6-induced p-STAT3 upregulation” value in assay [4] (10 μM for 4 hours, then IL-6 100 ng/mL 30 minutes, FIG. 15B) was “suppressed”. Moreover, the “cleavage of poly(ADP-ribose) polymerase (PARP) fragments” value in assay [4] (Western blotting, FIG. 14C) is on record as “dose-dependently increased”. In assay [4] (independent of the PDGFR signaling, FIG. 15D), the “p-Akt and p-STAT3 after administering AG1295, a specific PDGFR inhibitor” value was “still downregulated”. Further, the “survival compared with the sorafenib treatment” value in assay [5] (10 mg/kg, log rank P=0.0671, FIG. 12E) is on record as “tendency to yield higher survival”. Besides, in assay [5] (10 mg/kg, log-rank P=0.0291, FIG. 12E), the “survival rate compared with the control group” value is “significantly improved the survival rate”. Further, the “anti-fibrotic activity in qCPA, Ishak fibrosis score and hydroxyproline concentration” value in assay [5] (5, 10, or 20 mg/kg, FIG. 12B-12D) is given as “increasing anti-fibrotic activity”. Also, the “hepatic fibrosis (picrosirius red staining)” value in assay [5] (compound 5, 10, or 20 mg/kg or sorafenib 10 mg/kg, with CCl4 for 6 weeks after 2 weeks CCl4 induction, FIG. 12A) is “significantly improved hepatic fibrosis”.
